Data as given in patent publication US4459290A, “C-23-Modified derivatives of OMT, pharmaceutical compositions and method of use” (priority 1982, dated 1984).
Values after ≈ are worked out from the molar mass of the structure shown. Where two headings read alike, the source gives them in different places.

Tests used:
[1] = system: Pasteurella multocida 22A; experiment: MIC, broth-dilution microtiter test (Table VII); format: cell-based
Experimental: (§1) Especially noteworthy is the improved activity against gram-negative bacteria for several derivatives when compared to the activity of OMT. […] The MIC's in Tables V and VI were determined by standard agar-dilution assays. The MIC's in Table VII were obtained using a conventional broth-dilution microtiter test.

[2] = system: Pasteurella multocida 17E; experiment: MIC, broth-dilution microtiter test (Table VII); format: cell-based
Experimental: as §1

[3] = system: Mycoplasma hyorhinis; experiment: MIC, broth-dilution microtiter test (Table VII); format: cell-based; conditions: M. hyorhinis, broth-dilution microtiter
Experimental: as §1

[4] = system: Staphylococcus aureus; experiment: MIC, broth-dilution microtiter test (Table VII); format: cell-based
Experimental: as §1

[5] = system: Pasteurella multocida 68C; experiment: MIC, broth-dilution microtiter test (Table VII); format: cell-based; conditions: P. multocida 68C, broth-dilution microtiter
Experimental: as §1

[6] = system: Streptococcus sp. 80; experiment: MIC, broth-dilution microtiter test (Table VII); format: cell-based
Experimental: as §1

[7] = system: Pasteurella hemolytica 41D; experiment: MIC, broth-dilution microtiter test (Table VII); format: cell-based; conditions: P. hemolytica 41D
Experimental: as §1

[8] = system: Pasteurella hemolytica 23C; experiment: MIC, broth-dilution microtiter test (Table VII); format: cell-based; conditions: P. hemolytica 23C
Experimental: as §1

[9] = system: Mycoplasma gallisepticum; experiment: MIC, broth-dilution microtiter test (Table VII); format: cell-based
Experimental: as §1

[10] = system: Pasteurella multocida 40G; experiment: MIC, broth-dilution microtiter test (Table VII); format: cell-based
Experimental: as §1

[11] = system: Pasteurella multocida 60A; experiment: MIC, broth-dilution microtiter test (Table VII); format: cell-based
Experimental: as §1

[12] = system: Pasteurella hemolytica 22C; experiment: MIC, broth-dilution microtiter test (Table VII); format: cell-based; conditions: P. hemolytica 22C
Experimental: as §1

[13] = system: Mycoplasma synoviae; experiment: MIC, broth-dilution microtiter test (Table VII); format: cell-based
Experimental: as §1

[14] = system: Streptococcus pneumoniae Park I; experiment: microbe, parasite or virus in culture; format: cell-based
Experimental: as §1

[15] = system: Escherichia coli EC14; experiment: MIC, standard agar-dilution assay (Table V); format: cell-based; conditions: E. coli EC14, agar dilution
Experimental: as §1

[16] = system: Staphylococcus aureus X1.1; experiment: MIC, standard agar-dilution assay (Table V); format: cell-based
Experimental: as §1

[17] = system: Klebsiella pneumoniae KAE; experiment: MIC, standard agar-dilution assay (Table V); format: cell-based; conditions: K. pneumoniae KAE, agar dilution
Experimental: as §1

[18] = system: Staphylococcus epidermidis EPI2; experiment: MIC, standard agar-dilution assay (Table V); format: cell-based
Experimental: as §1

[19] = system: Staphylococcus epidermidis EPI1; experiment: MIC, standard agar-dilution assay (Table V); format: cell-based
Experimental: as §1

[20] = system: Staphylococcus aureus S13E; experiment: MIC, standard agar-dilution assay (Table V); format: cell-based
Experimental: as §1

[21] = system: Escherichia coli N10; experiment: MIC, standard agar-dilution assay (Table V); format: cell-based; conditions: E. coli N10, agar dilution
Experimental: as §1

[22] = system: Shigella sonnei N9; experiment: MIC, standard agar-dilution assay (Table V); format: cell-based
Experimental: as §1

[23] = system: Staphylococcus aureus V41; experiment: MIC, standard agar-dilution assay (Table V); format: cell-based
Experimental: as §1

[24] = system: Streptococcus Group D X66; experiment: MIC, standard agar-dilution assay (Table V); format: cell-based
Experimental: as §1

[25] = system: Klebsiella pneumoniae X26; experiment: MIC, standard agar-dilution assay (Table V); format: cell-based; conditions: K. pneumoniae X26, agar dilution
Experimental: as §1

[26] = system: Staphylococcus aureus X400; experiment: MIC, standard agar-dilution assay (Table V); format: cell-based
Experimental: as §1

[27] = system: Streptococcus Group 9960; experiment: MIC, standard agar-dilution assay (Table V); format: cell-based
Experimental: as §1

[28] = system: Streptococcus pyogenes C203; experiment: MIC, standard agar-dilution assay (Table V); format: cell-based
Experimental: (§2) The MIC's in Tables V and VI were determined by standard agar-dilution assays. The MIC's in Table VII were obtained using a conventional broth-dilution microtiter test.

[29] = system: Escherichia coli TEM; experiment: MIC, standard agar-dilution assay (Table V); format: cell-based; conditions: E. coli TEM, agar dilution
Experimental: as §2

[30] = system: Haemophilus influenzae Holt; experiment: MIC, standard agar-dilution assay (Table V); format: cell-based
Experimental: as §2

[31] = system: Haemophilus influenzae R252; experiment: MIC, standard agar-dilution assay (Table V); format: cell-based
Experimental: as §2

[32] = system: Pasteurella multocida; experiment: Protection of one-day-old chicks against Pasteurella multocida infection (Table IX); format: in vivo; conditions: subcutaneous 30 mg/kg × 2, 1 and 4 hours post-challenge
Experimental: The C-23 modified derivatives of OMT have also shown in vivo antibacterial activity against infections induced by gram-negative bacteria. Table IX summarizes the results of tests in which illustrative compounds were evaluated against Pasteurella infections in one-day-old chicks. The compounds were administered by subcutaneous injection at a dosage of 30 mg/kg, 1 and 4 hours post-challenge of the chicks with Pasteurella multocida (0.1 ml of a twenty-hour tryptose broth culture of an avian P. multocida given subcutaneously). In the tests, all ten non-medicated infected chicks died within 24 hours of Pasteurella challenge.

[33] = Escherichia coli, read-out: MIC
[34] = Klebsiella pneumoniae, read-out: MIC
[35] = P. multocida 22A, broth-dilution microtiter
[36] = P. multocida 17E, bovine isolate, broth-dilution microtiter
[37] = S. aureus, broth-dilution microtiter
[38] = Streptococcus sp. 80, broth-dilution microtiter
[39] = M. gallisepticum, broth-dilution microtiter
[40] = P. multocida 40G, broth-dilution microtiter
[41] = P. multocida 60A, avian isolate, broth-dilution microtiter
[42] = M. synoviae, broth-dilution microtiter
[43] = S. pneumoniae Park I, agar dilution
[44] = S. epidermidis EPI2, agar dilution
[45] = S. epidermidis EPI1, agar dilution
[46] = S. aureus V41, penicillin-resistant strain, agar dilution
[47] = Streptococcus Group D X66, agar dilution
[48] = S. aureus X400, methicillin-resistant strain, agar dilution
[49] = Streptococcus Group 9960, agar dilution
[50] = S. pyogenes C203, agar dilution
[51] = H. influenzae Holt, ampicillin-sensitive strain, agar dilution
[52] = H. influenzae R252, ampicillin-resistant strain, agar dilution

CCC1OC(=O)CC(O)C(C)C(OC2OC(C)C(O)C(N(C)C)C2O)C(CC=O)CC(C)C(=O)C=CC(C)(OCCc2ccccc2)C2CC12 (stereo not drawn) [Compound 18]
MIC ([1]; Pasteurella multocida, 22A): 12.5 µg/mL (≈ 17.8 µM)
MIC ([2]; Pasteurella multocida, 17E): 12.5 µg/mL (≈ 17.8 µM)
MIC ([3]; read-out: MIC): 25 µg/mL (≈ 35.6 µM)
MIC ([4]; Staphylococcus aureus): 6.25 µg/mL (≈ 8.9 µM)
MIC ([5]; Pasteurella multocida, read-out: MIC): 25 µg/mL (≈ 35.6 µM)
MIC ([6]; Streptococcus, SP.80): 1.56 µg/mL (≈ 2.22 µM)
MIC ([7]; Pasteurella, read-out: MIC): 25 µg/mL (≈ 35.6 µM)
MIC ([8]; Pasteurella, read-out: MIC): 25 µg/mL (≈ 35.6 µM)
MIC ([9]; Mycoplasmoides gallisepticum): 1.56 µg/mL (≈ 2.22 µM)
MIC ([10]; Pasteurella multocida, 40G): 12.5 µg/mL (≈ 17.8 µM)
MIC ([11]; Pasteurella multocida, 60A): 12.5 µg/mL (≈ 17.8 µM)
MIC ([12]; Pasteurella, read-out: MIC): 25 µg/mL (≈ 35.6 µM)
MIC ([13]; Mycoplasmopsis synoviae): 3.12 µg/mL (≈ 4.45 µM)
MIC ([14]; Streptococcus pneumoniae): 0.25 µg/mL (≈ 0.356 µM)
MIC [15, 33]: > 128 µg/mL
MIC ([16]; Staphylococcus aureus, X1.1): 1 µg/mL (≈ 1.42 µM)
MIC [17, 34]: > 128 µg/mL
MIC ([18]; Staphylococcus epidermidis, EPI2): 2 µg/mL (≈ 2.85 µM)
MIC ([19]; Staphylococcus epidermidis, EPI1): 1 µg/mL (≈ 1.42 µM)
MIC ([20]; Staphylococcus aureus, S13E): 1 µg/mL (≈ 1.42 µM)
MIC [21, 33]: > 128 µg/mL
MIC [22]: > 128 µg/mL
MIC ([23]; Staphylococcus aureus, V41): 2 µg/mL (≈ 2.85 µM)
MIC [24]: 1 µg/mL (≈ 1.42 µM)
MIC [25, 34]: 16 µg/mL (≈ 22.8 µM)
MIC ([26]; Staphylococcus aureus, X400): 2 µg/mL (≈ 2.85 µM)
MIC ([27]; GROUP9960): 2 µg/mL (≈ 2.85 µM)
MIC ([28]; Streptococcus pyogenes, C203): 1 µg/mL (≈ 1.42 µM)
MIC [29, 33]: 64 µg/mL (≈ 91.2 µM)
MIC ([30]; Haemophilus influenzae): 8 µg/mL (≈ 11.4 µM)
MIC ([31]; Haemophilus influenzae, R252): 8 µg/mL (≈ 11.4 µM)

CCC1OC(=O)CC(O)C(C)C(OC2OC(C)C(O)C(N(C)C)C2O)C(CC=O)CC(C)C(=O)C=CC(C)=CC1CNC(=O)CNC(=O)C(C)NC(=O)OC(C)(C)C (stereo not drawn) [Compound 13]
MIC [1, 35]: > 50 µg/mL
MIC [2, 36]: 50 µg/mL (≈ 60.6 µM)
MIC [3]: 50 µg/mL (≈ 60.6 µM)
MIC [4, 37]: 25 µg/mL (≈ 30.3 µM)
MIC [5]: 50 µg/mL (≈ 60.6 µM)
MIC [6, 38]: 6.25 µg/mL (≈ 7.58 µM)
MIC [7]: > 50 µg/mL
MIC [8]: > 50 µg/mL
MIC [9, 39]: 6.25 µg/mL (≈ 7.58 µM)
MIC [10, 40]: 50 µg/mL (≈ 60.6 µM)
MIC [11, 41]: 50 µg/mL (≈ 60.6 µM)
MIC [12]: > 50 µg/mL
MIC [13, 42]: 12.5 µg/mL (≈ 15.2 µM)
Number of deaths/number treated [32]: 7/10
MIC [14, 43]: 4 µg/mL (≈ 4.85 µM)
MIC [15]: -- (MIC ≥ 128)
MIC ([16]; S. aureus X1.1, agar dilution): 16 µg/mL (≈ 19.4 µM)
MIC [17]: -- (MIC ≥ 128)
MIC [18, 44]: 32 µg/mL (≈ 38.8 µM)
MIC [19, 45]: 16 µg/mL (≈ 19.4 µM)
MIC ([20]; S. aureus S13E, agar dilution): 32 µg/mL (≈ 38.8 µM)
MIC [21]: -- (MIC ≥ 128)
MIC [23, 46]: 32 µg/mL (≈ 38.8 µM)
MIC [24, 47]: 32 µg/mL (≈ 38.8 µM)
MIC [25]: -- (MIC ≥ 128)
MIC [26, 48]: 32 µg/mL (≈ 38.8 µM)
MIC [27, 49]: 32 µg/mL (≈ 38.8 µM)
MIC [28, 50]: 4 µg/mL (≈ 4.85 µM)
MIC [29]: -- (MIC ≥ 128)
MIC [30, 51]: 64 µg/mL (≈ 77.6 µM)
MIC [31, 52]: 64 µg/mL (≈ 77.6 µM)

CCC1OC(=O)CC(O)C(C)C(OC2OC(C)C(O)C(N(C)C)C2O)C(CC=O)CC(C)C(=O)C=CC(C)=CC1CNC(=O)CNC(=O)C(C)N (stereo not drawn) [Compound 14]
MIC [1, 35]: > 50 µg/mL
MIC [2, 36]: > 50 µg/mL
MIC [3]: 50 µg/mL (≈ 69 µM)
MIC [4, 37]: > 50 µg/mL
MIC [5]: > 50 µg/mL
MIC [6, 38]: 25 µg/mL (≈ 34.5 µM)
MIC [7]: > 50 µg/mL
MIC [8]: > 50 µg/mL
MIC [9, 39]: 12.5 µg/mL (≈ 17.2 µM)
MIC [10, 40]: > 50 µg/mL
MIC [11, 41]: > 50 µg/mL
MIC [12]: > 50 µg/mL
MIC [13, 42]: 6.25 µg/mL (≈ 8.62 µM)
Number of deaths/number treated [32]: 10/10
MIC [14, 43]: 16 µg/mL (≈ 22.1 µM)
MIC [15]: -- (MIC ≥ 128)
MIC ([16]; S. aureus X1.1, agar dilution): 64 µg/mL (≈ 88.3 µM)
MIC [17]: -- (MIC ≥ 128)
MIC [18, 44]: 64 µg/mL (≈ 88.3 µM)
MIC [19, 45]: 64 µg/mL (≈ 88.3 µM)
MIC ([20]; S. aureus S13E, agar dilution): 64 µg/mL (≈ 88.3 µM)
MIC [21]: -- (MIC ≥ 128)
MIC [23, 46]: 64 µg/mL (≈ 88.3 µM)
MIC [24, 47]: 64 µg/mL (≈ 88.3 µM)
MIC [25]: -- (MIC ≥ 128)
MIC [26, 48]: 128 µg/mL (≈ 177 µM)
MIC [27, 49]: 64 µg/mL (≈ 88.3 µM)
MIC [28, 50]: 16 µg/mL (≈ 22.1 µM)
MIC [29]: -- (MIC ≥ 128)
MIC [30, 51]: -- (MIC ≥ 128)
MIC [31, 52]: -- (MIC ≥ 128)
